# In patent publication US8921424B2, “Histone deacetylase inhibitors, process for preparation and uses thereof” (Zhejiang Hisun Pharmaceutical Co. Ltd., priority 2007, dated 2014):
# Columns and labels:
# BXPC-3 = assay: Cell-based proliferation assay (SRB), BXPC-3; conditions: Homo sapiens
# [1] = Microsomal stability and clearance; type: in vitro ADME, human, mouse; conditions: microsomal stability; Table 4
# Method: Measure of Microsomal Stability and Clearance with Compounds of this Invention
# Verapamil (positive control) and compound solution, both at 10 mM, are diluted 200 fold. There are six reaction time points in the experiment (0 min, 5 min, 15 min, 30 min, 45 min, and 60 min), and triplicate samples are used for each data point. There are controls for time zero and negative drug effect (negative control containing no incubation buffer or enzyme). For each compound or Verapamil sample, there are also samples treated with compound or Verapamil at concentrations of no positive effect (at 5 μM and 2.5 μM, respectively). Diluted positive control (Verapamil) and compound solution are mixed with pre-heated (37° C.) incubation buffer (100 mM potassium phosphate buffer, NADPH regeneration system solution B, NAPDH regeneration system solution A, HLM/MLM in Milli-Q ultrapure water), and incubated at 37° C. for 10 min. 100 μL of stop solution mixture is (containing 80% acetonitrile, and 20% DMSO, both of HPLC grade) is dispensed into wells of separate sampling plates into each well. At each reaction time point (0 min, 5 min, 15 min, 30 min, 45 min, and 60 min) 50 μL of reaction solution is taken from wells in the incubation plate and transferred to its corresponding well in the sampling plate, and mixed by pipetting up and down with stop solution already added there. The sampling plates are then covered, placed on ice, and centrifuged at 2,000 rpm at 4° C. for 15 min. 100 μL supernatant is then taken from each well to LC/MS analysis (or stored at 4° C. in refrigerator until analysis).
# Data analysis: % remaining of compound is calculated by area of each time point with respect to time 0% remaining against time (min) curve is plotted using the first-phase exponential decay equation y=y0e(−kT) on the Prism 4.0. Results are shown in the format of TOP, K, t1/2 (min), R2 value and % remaining against time curve.
# COLO-205 = assay: Xenograft model, COLO-205; type: in vivo, mouse; conditions: i.p., 12 days
# Source text: In Vivo Anti-Neoplastic (or Anti-Tumour) Effect of HDAC Inhibiting Agents
# The efficacy of the selected compounds of the invention can then be determined using in vivo animal (mouse) xenograft studies. The animal xenograft model is one of the most commonly used in vivo cancer models for studying the pharmaceutically effective dosage, administration route, frequency and interval.
# Athymic nude mice (Female, 5-6 week old, BALB/c, nu/nu, approximately 18-20 g body weight) are obtained from Vital River. The animals are kept on a 12 h light/dark cycle (0700-1900); food and water are provided ad libitum. All in vivo experiments are carried out in a specific pathogen-free facility (22° C.). The human cancer […] transplant model in athymic nude mice is constructed using xenograft cell lines colon cancer cell line colo205, breast cancer cell line MDA-MB435, and lung cancer cell line A549, all obtained from ATCC. Cultured cells are removed from culture plate wall by digestion, collected and suspended in cell culture medium containing no FBS, at a concentration of 5×10^6/0.2 ml, and brought to animal facility on ice. is 0.2 ml cell suspension is given to mice via rear left auxilliary subcutaneous scapular injection, using Size 6 needle. Animals are measured every 2-3 days on the size of tumor formation. After two weeks, those tumors that have been well grown without leak are removed from animals under sterile condition, split into several small fractions (2-3 mm in diameter), and injected s.c. into the rear left auxilliary subcutaneous scapular of animals. […] While the animas being treated, body weight of the animal and size of the tumor are measured every 3 days, with mortality also recorded. […] Tumors are removed, weighed, and measured. […] Tumor-inhibition rate, mortality, as well as relative tumor proliferationrate T/C (%) are calculated. […]
# Significant differences in tumor growth rate were determined by analysis of variance (Table 5).
# PC-3 = assay: Xenograft model, PC-3; type: in vivo, mouse; conditions: i.p., 15 days
# HL-60 = assay: Xenograft model, HL-60; type: in vivo, mouse; conditions: i.p.
"GI50 (BXPC-3; BXPC-3, Table 3) [µM]",half-life [1] [h],"GI50 (BXPC-3; BXPC-3, Table 4) [µM]",Compound,T/C(%) COLO-205 (COLO-205; 80 mg/kg),T/C(%) PC-3 (PC-3; 80 mg/kg),"T/C(%) HL-60 (HL-60; 80 mg/kg, 10 days)",T/C(%) COLO-205 (COLO-205; 30 mg/kg),T/C(%) PC-3 (PC-3; 30 mg/kg),"T/C(%) HL-60 (HL-60; 30 mg/kg, 10 days)",T/C(%) COLO-205 (COLO-205; 200 mg/kg),T/C(%) PC-3 (PC-3; 200 mg/kg),"T/C(%) HL-60 (HL-60; 200 mg/kg, 15 days)"
6.78,1.9,6.78,"CCCCc1nc2cc(/C=C/C(=O)NO)ccc2n1CCN(CC)CC [SB939, reference compound]",,,,"55% (30,12)",">60% (30,15)","51% (30,10)",,,
6.89,1.8,,"CCCCCNc1cc(/C=C/C(=O)NO)ccc1SCCN(CC)CC [Example 2, 3-(4-(2-(diethylamino)ethylthio)-3-(pentylamino)phenyl)-N-hydroxy-acrylamide]",,,,,,,"42% (200,12)","43% (200,15)","40% (200,15)"

Compound,"GI50 (BXPC-3; BXPC-3, Table 3) [µM]",half-life [1] [h],"GI50 (BXPC-3; BXPC-3, Table 4) [µM]",T/C(%) COLO-205 (COLO-205; 80 mg/kg),T/C(%) PC-3 (PC-3; 80 mg/kg),"T/C(%) HL-60 (HL-60; 80 mg/kg, 10 days)",T/C(%) COLO-205 (COLO-205; 30 mg/kg),T/C(%) PC-3 (PC-3; 30 mg/kg),"T/C(%) HL-60 (HL-60; 30 mg/kg, 10 days)",T/C(%) COLO-205 (COLO-205; 200 mg/kg),T/C(%) PC-3 (PC-3; 200 mg/kg),"T/C(%) HL-60 (HL-60; 200 mg/kg, 15 days)"
"O=C(CCCCCCC(=O)Nc1ccccc1)NO [SAHA, suberoylanilide hydroxamic acid, reference compound]",5.68,1.6,,">60% (80,12)","37% (80,15)","45% (80,10)",,,,,,
